Measurements from patent US8153658B2, “Piperidine derivative or salt thereof” (Astellas Pharma, Inc., priority 2006, dated 2012).
Structures can show the parent of a compound that is named as a salt.

Legend:
CYP2D6 [1] = molecular target: T1, CYP2D6 (Homo sapiens, UniProt P10635); conditions: reported, Non-Patent Document 4; cited from earlier work
human CaSR = molecular target: T2, human CaSR (Homo sapiens, UniProt P41180); test: Human calcium sensing receptor (CaSR) agonism test (Fluo-3 / FLIPR); format: cell-based; conditions: HEK 293 cell stably expressing human CaSR; 0.5 mM Ca2+; 2 mM Ca2+ group = 100%; read-out: EC50 (compound concentration showing 50% human CaSR agonistic activity)
T2 construct: a human CaSR open reading frame (ORF) was contained in the pcDNA3.1/Zeo(+) vector; expressed in transfected cells
T2 sequence (P41180 20-1078): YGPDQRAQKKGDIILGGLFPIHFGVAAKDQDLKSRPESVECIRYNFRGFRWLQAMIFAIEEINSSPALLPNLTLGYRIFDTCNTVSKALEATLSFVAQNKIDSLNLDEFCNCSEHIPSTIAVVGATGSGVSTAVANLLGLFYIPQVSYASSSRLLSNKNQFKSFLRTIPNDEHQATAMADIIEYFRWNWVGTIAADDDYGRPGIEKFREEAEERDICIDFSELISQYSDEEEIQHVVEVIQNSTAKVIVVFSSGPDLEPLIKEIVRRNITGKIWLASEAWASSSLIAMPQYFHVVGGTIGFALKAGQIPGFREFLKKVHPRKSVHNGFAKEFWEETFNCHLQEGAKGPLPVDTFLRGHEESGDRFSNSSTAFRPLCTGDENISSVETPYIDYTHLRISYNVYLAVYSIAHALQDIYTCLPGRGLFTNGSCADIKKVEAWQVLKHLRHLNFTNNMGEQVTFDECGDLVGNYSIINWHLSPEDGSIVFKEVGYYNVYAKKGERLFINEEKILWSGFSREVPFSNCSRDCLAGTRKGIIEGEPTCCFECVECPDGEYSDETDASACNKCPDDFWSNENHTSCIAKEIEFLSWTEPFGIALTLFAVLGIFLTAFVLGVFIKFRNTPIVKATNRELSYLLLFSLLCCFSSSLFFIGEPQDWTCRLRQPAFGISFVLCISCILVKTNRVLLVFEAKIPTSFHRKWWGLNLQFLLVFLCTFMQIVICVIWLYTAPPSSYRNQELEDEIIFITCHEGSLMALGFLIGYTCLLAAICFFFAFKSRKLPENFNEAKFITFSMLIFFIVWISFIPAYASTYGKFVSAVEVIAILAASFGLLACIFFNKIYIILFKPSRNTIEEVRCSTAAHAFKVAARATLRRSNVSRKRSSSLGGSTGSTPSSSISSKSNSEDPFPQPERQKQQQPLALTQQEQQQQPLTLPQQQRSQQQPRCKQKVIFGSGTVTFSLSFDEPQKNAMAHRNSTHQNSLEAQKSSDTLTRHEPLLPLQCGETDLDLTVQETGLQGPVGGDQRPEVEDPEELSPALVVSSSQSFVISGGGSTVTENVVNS
Excerpt: Test 1. Human calcium sensing receptor (CaSR) agonism test
1) Preparation of Human CaSR Expression Vector
A DNA fragment coding for human CaSR was cloned in the standard method.
Illustratively, using 203 to 2387 of NM_000388 as a DNA fragment D4, and 2210 to 3633 as a DNA fragment B2, they were amplified using a human kidney cDNA (manufactured by Invitrogen) as the template and using a DNA polymerase (a registered trade name: Pyrobest, manufactured by Takara Bio), and respectively cloned into a pCR2.1 vector using a pCR2.1-Topo vector (manufactured by Invitrogen). Next, the DNA fragments prepared by digesting the pCR2.1-D4 with SpeI and XbaI were inserted into the same sites of pcDNA3.1/Zeo(+) vector. Successively, the fragments prepared by digesting pCR2.1-B2 with SacI and XbaI were inserted into the SacI and XbaI sites of previously prepared pcDNA3.1/Zeo(+)-D4(SpeI-XbaI), thereby obtaining a human CaSR expression vector pcDNA3.1/Zeo(+)-hCaSR in which a human CaSR open reading frame (ORF) was contained in the pcDNA3.1/Zeo(+) vector.
2) Preparation of Human CaSR Expression Cell
The human CaSR expression vector was transferred into a HEK 293 cell using a transfection reagent (registered trademark: FuGene 6, manufactured by Roche Diagnostics). After the gene transfer, this was cultured in a DMEM (manufactured by Invitrogen) medium containing 40 μg/ml Zeocin (registered trademark, manufactured by Invitrogen) and a 10% fetal bovine serum at 37° C. for 2 weeks in the presence of 5% CO2, thereby obtaining Zeocin-resistant clones. A human CaSR stably expressing HEK 293 clone was obtained from these clones by selection using the responsiveness to extracellular Ca^2+ as an index.
3) Human CaSR Agonism Test
The HEK 293 cell stably expressing human CaSR was inoculated into a poly-D-lysine-coated black clear bottom 96 well plate (manufactured by BD Biosciences). Hanks' balanced salt solution (HBSS) (Ca^2+ (−), Mg^2+ (−), manufactured by Invitrogen) containing a 20 mM HEPES (2-[4-(2-hydroxyethyl)-1-piperazinyl]ethanesulfonic acid) buffer (pH 7.4), 2.5 mM of probenecid (manufactured by Sigma), and 0.1% of bovine serum albumin was prepared as a washing buffer. After the inoculation and the subsequent overnight culturing, the medium was discarded, the washing buffer supplemented with 1 mM CaCl2 and 10 μM Fluo-3 AM (trade name, manufactured by DOJINDO) was added thereto in 100 μl per well portions, and then the incubation was carried out at 37° C. for 1 hour in the presence of 5% CO2. This was washed twice with 200 μl of the washing buffer, replaced by 100 μl of the washing buffer supplemented with 0.5 mM CaCl2 and allowed to stand still for 10 minutes, and then the responsiveness to each compound to be evaluated was detected using a plate reader for fluorometry image analysis use (registered trademark: FLIPR, manufactured by Molecular Devices). In this connection, the compound to be evaluated was used by optionally diluting with the washing buffer supplemented with 0.5 mM Ca^2+.
The human CaSR agonistic activity strength of each compound to be evaluated was calculated by defining the solvent group as 0% and the 2 mM of Ca^2+ in the final concentration group as 100%, and the compound concentration showing 50% activity (EC50) was calculated from a concentration-activity curve by the method of least squares.

[2] = Measurement of rat plasma calcium concentration; format: in vivo; conditions: normal male rats, single oral administration 3 mg/kg, 2 hours after administration, read-out: Rat plasma calcium concentration reducing ratio (%) 2 hours after administration (3 mg/kg)
Description: Test 2. Measurement of Rat Plasma Calcium Concentration and Plasma PTH Concentration
The compounds of the present invention were administered to rats, and their influences upon the plasma calcium concentration and the plasma PTH concentration were examined. The test was carried out by single oral administration of the compounds of the present invention and the control compounds to 5 to 6 normal male rats, or male rats with renal failure, respectively As a vehicle group, 0.5% of a methyl cellulose (MC) solution was administered at a dose of 5 ml/kg. As a reference compound, cinacalcet was dissolved in the MC solution and administered at a dose of 3 mg/kg. Each of the compounds of the present invention was dissolved or suspended in the MC solution, and administered at a dose of 1, 3 or 10 mg/kg.
Blood samples were collected from the orbital venous plexus under ether anesthesia before the administration and 2 hours, 4 hours, or 8 hours in some cases, after the administration, and the plasma calcium concentration was measured using Calcium E-Test Wako (manufactured by Wako Pure Chemical Industries), and the plasma PTH concentration was measured using a Rat Intact PTH ELISA Kit (manufactured by Immutopics).

CYP2D6 [3] = molecular target: T1, CYP2D6; test: Human CYP2D6 inhibition test; format: biochemical; set-up: purchased BD Gentest 456217; conditions: CYP2D6 7.5 pmol/mL; fluorescence substrate AMMC 1.5 μM; 37° C. 30 minutes
Description: Test 3. Human CYP2D6 Inhibition Test
Inhibitory activity evaluation for CYP2D6 was carried out by measuring it in accordance, roughly, with a reference (“Drug Metabolism and Disposition”, 2001, vol. 29, p. 1196-1200).
Final concentrations of the reagents in the enzyme reaction solution were respectively set to CYP2D6=7.5 pmol/mL (manufactured by BD Gentest, Catalog No. 456217), reduced type nicotinamide adenine dinucleotide phosphate (NADPH) regeneration system (0.0081 mM nicotinamide adenine dinucleotide phosphate (NADP+), 0.41 mM glucose-6-phosphate, 0.41 mM MgCl2, 0.4 units glucose-6-phosphate dehydrogenase), and a fluorescence substrate AMMC=1.5 μM, 100 mM potassium phosphate buffer (pH 7.4). Each compound was made into a 50% acetonitrile solution and added to the enzyme reaction solution (acetonitrile final concentration 2.5%). The enzyme reaction was carried out at 37° C. for 30 minutes, the reaction was stopped using a stopping liquid (0.1 M tris(hydroxymethyl)aminomethane (Tris-base):acetonitrile=20:80), and the fluorescence intensity was then measured. The concentration showing 50% inhibition (IC50) was calculated from the thus obtained fluorescence intensity, by defining the enzyme activity at a time of no compound addition as 100%.

T1 sequence (P10635 whole entry): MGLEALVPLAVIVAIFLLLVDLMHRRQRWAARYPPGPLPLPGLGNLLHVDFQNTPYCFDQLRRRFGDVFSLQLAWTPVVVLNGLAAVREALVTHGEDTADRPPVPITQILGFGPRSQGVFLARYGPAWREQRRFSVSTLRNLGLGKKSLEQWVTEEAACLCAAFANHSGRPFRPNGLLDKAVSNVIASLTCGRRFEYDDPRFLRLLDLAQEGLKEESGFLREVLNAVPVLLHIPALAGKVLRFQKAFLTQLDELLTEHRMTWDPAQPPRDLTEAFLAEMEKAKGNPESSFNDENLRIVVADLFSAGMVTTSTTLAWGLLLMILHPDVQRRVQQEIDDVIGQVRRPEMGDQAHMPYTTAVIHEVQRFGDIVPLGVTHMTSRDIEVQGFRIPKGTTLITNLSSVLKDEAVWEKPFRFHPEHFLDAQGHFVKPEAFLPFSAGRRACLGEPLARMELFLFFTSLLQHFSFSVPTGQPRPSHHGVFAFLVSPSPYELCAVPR

Row | Compound | activity to inhibit CYP2D6 (in words) (CYP2D6 [1]) | EC50 (human CaSR) [nM] | inhibition in vivo at 3 mg/kg [2] [%] | IC50 (CYP2D6 [3]) [nM]
1 | C[C@@H](NCCCc1cccc(C(F)(F)F)c1)c1cccc2ccccc12 [cinacalcet] | strong activity to inhibit CYP2D6 |  |  | 
2 | C[C@@H](NCC1CCN(c2c(F)cc(C(=O)O)cc2F)CC1c1ccccc1)c1cccc2ccccc12 (stereo partly drawn) [Example 52, 3,5-difluoro-4-[4-({[(1R)-1-(1-naphthyl)ethyl]amino}methyl)-3-phenylpiperidin-1-yl]benzoic acid hydrochloride] |  | 13 | 26 | ≥ 20000
3 | C[C@@H](NCC1CCN(c2cccc(C(=O)O)c2)CC1c1ccccc1F)c1cccc2ccccc12 (stereo partly drawn) [Example 35, 3-[3-(2-fluorophenyl)-4-({[(1R)-1-(1-naphthyl)ethyl]amino}methyl)piperidin-1-yl]benzoic acid hydrochloride] |  | 7.6 | 33 | ≥ 20000
